From BigSolDB 2.1

CCCc1ncc(C[n+]2ccccc2C)c(N)n1.Cl.[Cl-]
solubility (mole fraction)
Details | 273.15 K | 278.15 K | 283.15 K | 288.15 K | 293.15 K | 298.15 K | 303.15 K | 308.15 K | 313.15 K
in 1,4-dioxane | – | – | – | 5.76e-05 | 7.08e-05 | 8.42e-05 | 9.99e-05 | 0.000115 | 0.000132
in acetone | 0.000227 | 0.000259 | 0.000291 | 0.000325 | 0.000359 | 0.000401 | 0.000444 | 0.000487 | 0.000533
in acetonitrile | 7.2e-06 | 9.3e-06 | 1.15e-05 | 1.42e-05 | 1.68e-05 | 1.98e-05 | 2.35e-05 | 2.79e-05 | 3.27e-05
in cyclohexanone | 0.000117 | 0.000146 | 0.000181 | 0.000217 | 0.000252 | 0.000287 | 0.000327 | – | –
in ethanol | 5.33e-05 | 6.8e-05 | 9.17e-05 | 0.000124 | 0.000159 | 0.000195 | 0.000232 | 0.000273 | 0.000319
in ethyl acetate | 2.48e-05 | 3.34e-05 | 4.3e-05 | 5.26e-05 | 6.41e-05 | 7.65e-05 | 8.91e-05 | 0.000104 | 0.00012
in isobutanol | 9.3e-06 | 1.3e-05 | 1.71e-05 | 2.18e-05 | 2.71e-05 | 3.33e-05 | 4.11e-05 | 4.98e-05 | 5.86e-05
in isopropanol | 1.12e-05 | 1.63e-05 | 2.25e-05 | 2.89e-05 | 3.83e-05 | 4.87e-05 | 6.13e-05 | 7.76e-05 | 9.49e-05
in methanol | 0.000272 | 0.000376 | 0.000476 | 0.00059 | 0.000722 | 0.000854 | 0.001 | 0.00115 | 0.0013
in n-butanol | 1.79e-05 | 2.34e-05 | 3.1e-05 | 3.89e-05 | 4.88e-05 | 6.01e-05 | 7.53e-05 | 9.25e-05 | 0.000109
in n-octanol | 2e-06 | 3.3e-06 | 4.9e-06 | 6.7e-06 | 9.5e-06 | 1.38e-05 | 1.86e-05 | 2.41e-05 | 3.01e-05
in n-propanol | 2.98e-05 | 4.12e-05 | 5.26e-05 | 6.51e-05 | 7.7e-05 | 9.09e-05 | 0.000106 | 0.000124 | 0.000142
